Experimental data as given in ChEMBL document CHEMBL1201862, “PubChem BioAssay data set” (2004).
Calls of active or inactive are those of the source.

Legend:
[1] = test system: Streptococcus sp. 'group A'; assay: growth inhibition of control SK(-) GAS strain, dose response, counter-screen for streptokinase expression inhibitor project, luminescence, kanamycin, BacTiterGlo, confirmation (AID 1900); assay type: functional, organism-based
[2] = biological target: NACHT, LRR and PYD domains-containing protein 3 (Homo sapiens, UniProt Q96P20); assay: NALP3 inhibitors in yeast, dose response, luminescent (AID 488799); assay type: functional
Sequence of NACHT, LRR and PYD domains-containing protein 3 (Q96P20 whole entry, the tested form may be a part): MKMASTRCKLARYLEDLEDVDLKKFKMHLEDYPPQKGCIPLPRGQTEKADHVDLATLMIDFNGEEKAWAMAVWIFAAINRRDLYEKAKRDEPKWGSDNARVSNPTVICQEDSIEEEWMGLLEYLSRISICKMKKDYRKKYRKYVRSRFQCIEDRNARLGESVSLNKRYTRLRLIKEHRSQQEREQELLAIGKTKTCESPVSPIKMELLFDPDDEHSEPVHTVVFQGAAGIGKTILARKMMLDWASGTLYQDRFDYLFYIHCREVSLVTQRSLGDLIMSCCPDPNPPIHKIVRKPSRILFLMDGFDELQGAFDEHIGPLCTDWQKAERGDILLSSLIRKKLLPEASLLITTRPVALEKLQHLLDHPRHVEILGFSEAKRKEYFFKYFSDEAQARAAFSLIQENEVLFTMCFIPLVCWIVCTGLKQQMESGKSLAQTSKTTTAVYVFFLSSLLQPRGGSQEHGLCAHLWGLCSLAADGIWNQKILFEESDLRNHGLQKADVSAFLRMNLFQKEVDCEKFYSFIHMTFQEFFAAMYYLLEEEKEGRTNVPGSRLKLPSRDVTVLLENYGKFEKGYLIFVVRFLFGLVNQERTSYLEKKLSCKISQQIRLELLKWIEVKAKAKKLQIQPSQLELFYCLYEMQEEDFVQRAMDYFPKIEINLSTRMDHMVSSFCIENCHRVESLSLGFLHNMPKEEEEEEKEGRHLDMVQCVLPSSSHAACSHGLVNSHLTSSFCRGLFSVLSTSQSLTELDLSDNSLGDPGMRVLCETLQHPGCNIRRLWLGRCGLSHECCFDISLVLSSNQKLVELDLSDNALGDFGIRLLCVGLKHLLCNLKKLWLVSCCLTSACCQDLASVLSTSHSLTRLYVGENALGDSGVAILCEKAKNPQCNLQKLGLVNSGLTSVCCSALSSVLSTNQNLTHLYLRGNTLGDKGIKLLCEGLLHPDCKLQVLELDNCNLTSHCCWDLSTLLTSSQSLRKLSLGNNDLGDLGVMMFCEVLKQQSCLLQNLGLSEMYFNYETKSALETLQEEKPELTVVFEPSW

Streptococcus = assay: Group A Streptococcus viability loss, dose response, counter-screen for streptokinase expression inhibitor project, luminescence, BacTiterGlo (AID 1915); assay type: functional, organism-based;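 also: potency for reduction of bacterial viability or growth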
INS1 = assay: beta cell apoptosis inhibitors, cytokine rescue, dose response, luminescence, retest (AID 449756); assay type: functional, cell-based; details: Rattus norvegicus;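 also: cell death triggered by IL-1 beta plus TNF-alpha plus IFN-gamma mixture; protective hits raise ATP signal compared with cytokine alone wells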
Protein RecA = biological target: T1, Protein RecA (Mycobacterium tuberculosis, UniProt P9WHJ3); assay: Fluorescence Cell-Free Homogeneous Dose Retest to Identify Inhibitors of RecA-Intein Splicing Activity. [Related pubchem assays (depositor defined):AID2097, AID2223, AID489010, AID492950]; assay type: functional
T1 sequence (P9WHJ3 whole entry): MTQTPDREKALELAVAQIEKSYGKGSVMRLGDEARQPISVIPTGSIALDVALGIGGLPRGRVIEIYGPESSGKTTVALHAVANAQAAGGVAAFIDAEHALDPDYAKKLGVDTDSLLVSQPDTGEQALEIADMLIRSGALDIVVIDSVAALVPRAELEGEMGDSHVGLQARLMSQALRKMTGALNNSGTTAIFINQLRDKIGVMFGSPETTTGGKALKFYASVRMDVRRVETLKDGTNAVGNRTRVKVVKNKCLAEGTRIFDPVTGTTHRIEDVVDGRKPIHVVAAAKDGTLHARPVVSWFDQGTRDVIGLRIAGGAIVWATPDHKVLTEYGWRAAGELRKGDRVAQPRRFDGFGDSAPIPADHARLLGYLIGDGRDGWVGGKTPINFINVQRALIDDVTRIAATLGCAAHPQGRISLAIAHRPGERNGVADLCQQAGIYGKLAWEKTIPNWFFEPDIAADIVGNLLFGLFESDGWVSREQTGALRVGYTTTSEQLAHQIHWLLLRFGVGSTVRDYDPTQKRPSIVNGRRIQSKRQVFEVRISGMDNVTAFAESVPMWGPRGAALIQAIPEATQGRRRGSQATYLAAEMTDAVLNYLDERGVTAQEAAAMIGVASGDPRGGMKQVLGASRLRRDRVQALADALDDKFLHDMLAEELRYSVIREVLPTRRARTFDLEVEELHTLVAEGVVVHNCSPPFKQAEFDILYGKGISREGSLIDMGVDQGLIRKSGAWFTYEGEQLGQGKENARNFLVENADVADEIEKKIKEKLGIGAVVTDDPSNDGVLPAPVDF

[3] = biological target: T2, Replicative DNA helicase DnaB (Mycobacterium tuberculosis, UniProt P9WMR3); assay: DnaB intein splicing inhibitors, dose response, biochemical, cell-free fluorescence (AID 449749); assay type: functional
T2 sequence (P9WMR3 whole entry): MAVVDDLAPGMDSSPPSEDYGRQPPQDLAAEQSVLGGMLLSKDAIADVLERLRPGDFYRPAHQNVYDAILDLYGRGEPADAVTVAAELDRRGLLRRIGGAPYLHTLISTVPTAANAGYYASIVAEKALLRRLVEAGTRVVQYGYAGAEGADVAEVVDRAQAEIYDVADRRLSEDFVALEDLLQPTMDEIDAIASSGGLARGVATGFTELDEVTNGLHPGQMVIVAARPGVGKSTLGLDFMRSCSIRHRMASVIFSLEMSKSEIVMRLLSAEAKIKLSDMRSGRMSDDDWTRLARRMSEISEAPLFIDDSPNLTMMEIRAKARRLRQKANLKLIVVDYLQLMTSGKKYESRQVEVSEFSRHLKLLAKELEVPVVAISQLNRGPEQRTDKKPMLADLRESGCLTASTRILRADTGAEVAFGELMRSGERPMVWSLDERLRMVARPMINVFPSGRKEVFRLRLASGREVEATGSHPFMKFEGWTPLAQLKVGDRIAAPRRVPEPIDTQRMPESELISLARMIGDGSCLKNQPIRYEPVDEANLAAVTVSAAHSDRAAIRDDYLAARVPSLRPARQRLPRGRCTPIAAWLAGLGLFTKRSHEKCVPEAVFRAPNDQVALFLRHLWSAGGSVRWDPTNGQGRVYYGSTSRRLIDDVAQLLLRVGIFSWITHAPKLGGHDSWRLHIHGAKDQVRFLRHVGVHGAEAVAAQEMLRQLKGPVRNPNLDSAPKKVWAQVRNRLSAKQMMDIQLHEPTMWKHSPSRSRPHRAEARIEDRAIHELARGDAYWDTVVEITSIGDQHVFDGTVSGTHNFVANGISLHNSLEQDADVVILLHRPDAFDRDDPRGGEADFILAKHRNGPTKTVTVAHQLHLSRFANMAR

CCSc1nsc(NC(=O)Nc2cccc(F)c2)n1
active: EC50 [1] 9.91 µM | IC50 [2] 1.97 µM | EC50 (Streptococcus) 20.7 µM

O=[N+]([O-])c1ccc(/C=N/n2cnc3ccccc32)s1
active: AC50 (INS1) 2.6 µM

CC(C)c1ccc(S(=O)(=O)/N=C2\C=C(NS(=O)(=O)c3ccccc3)C(=O)c3ccccc32)cc1
active: EC50 (Protein RecA) 3.69 µM | AC50 [3] 3.92 µM

COc1ccc(CNC(=O)c2c(C)oc3c2C(=O)c2ccccc2C3=O)cc1
active: AC50 (INS1) 2.8 µM | EC50 [1] 0.737 µM | IC50 [2] 9.7 µM | EC50 (Protein RecA) 5.29 µM | AC50 [3] 13.3 µM | EC50 (Streptococcus) 6.35 µM
